Values of other authors, collected in patent publication US20150099002A1, “MEANS AND METHODS FOR ENHANCING WEIGHT GAIN IN POULTRY” (Nutrinia Ltd., priority 2007, published 2015).

Tested on: Cobb male chicks
Details: through drinking water or feed, high amounts, at least 21 days

## insulin: insulin provided to chicks through drinking water or feed in WO 2005/115473
  weight gain compared to same feed without insulin: higher weight gain
